Results: paper PMC10924921, “Mi-2β promotes immune evasion in melanoma by activating EZH2 methylation” (Nature Communications, 2024)

How the values were obtained:
Assay in all cases: biochemical
Parameters in all cases: KINOMEscan active-site competition binding panel (468 kinase assays), per cent of control at 1000 nM
Conditions in all cases: KINOMEscan per cent of control (binding competition); read-out: Percent Control
FLT3(ITD) = FLT3(ITD) (Homo sapiens, UniProt P36888, ITD)
Description: (§1) Figure S7 / Percent Control

EGFR(T790M) = EGFR(T790M) (Homo sapiens, UniProt P00533, T790M)
Description: as §1

CSNK1A1 = CSNK1A1 (Homo sapiens, UniProt P48729)
Description: as §1

EGFR(L861Q) = EGFR(L861Q) (Homo sapiens, UniProt P00533, L861Q)
Description: as §1

FGFR3 = FGFR3 (Homo sapiens, UniProt P22607)
Description: as §1

NEK10 = NEK10 (Homo sapiens, UniProt Q6ZWH5)
Description: as §1

JNK2 = biological target: T1, JNK2 (Homo sapiens, UniProt P45984)
T1 construct: gene MAPK9
T1 sequence (P45984 whole entry): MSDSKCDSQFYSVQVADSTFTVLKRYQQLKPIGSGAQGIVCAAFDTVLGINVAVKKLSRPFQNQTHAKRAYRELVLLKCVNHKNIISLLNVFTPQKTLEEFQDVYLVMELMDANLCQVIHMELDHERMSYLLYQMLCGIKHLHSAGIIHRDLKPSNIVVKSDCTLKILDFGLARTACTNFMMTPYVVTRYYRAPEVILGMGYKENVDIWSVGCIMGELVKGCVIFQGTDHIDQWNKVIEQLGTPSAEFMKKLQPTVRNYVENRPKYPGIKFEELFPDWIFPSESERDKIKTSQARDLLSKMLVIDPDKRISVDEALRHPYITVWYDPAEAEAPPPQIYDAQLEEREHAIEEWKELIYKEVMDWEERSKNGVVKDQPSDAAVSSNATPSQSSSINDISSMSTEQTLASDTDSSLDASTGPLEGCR
Description: as §1

SRC = SRC (Homo sapiens, UniProt P12931)
SRC, sequence (P12931 whole entry): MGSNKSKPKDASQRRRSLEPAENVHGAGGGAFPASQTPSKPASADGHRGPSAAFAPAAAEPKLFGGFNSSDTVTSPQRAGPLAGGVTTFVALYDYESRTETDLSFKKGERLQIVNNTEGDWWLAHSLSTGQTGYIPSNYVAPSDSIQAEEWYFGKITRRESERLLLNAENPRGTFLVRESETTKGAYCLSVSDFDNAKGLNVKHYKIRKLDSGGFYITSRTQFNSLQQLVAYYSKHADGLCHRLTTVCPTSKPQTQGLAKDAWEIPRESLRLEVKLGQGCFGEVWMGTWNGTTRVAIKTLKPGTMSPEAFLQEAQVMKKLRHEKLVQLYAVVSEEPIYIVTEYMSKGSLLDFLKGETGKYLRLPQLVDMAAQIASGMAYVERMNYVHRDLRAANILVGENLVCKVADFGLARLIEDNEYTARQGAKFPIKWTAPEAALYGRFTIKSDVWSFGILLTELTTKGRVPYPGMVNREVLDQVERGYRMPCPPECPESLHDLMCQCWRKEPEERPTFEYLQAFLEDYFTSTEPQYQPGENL
Description: as §1

CAMKK2 = CAMKK2 (Homo sapiens, UniProt Q96RR4)
Description: as §1

PAK1 = PAK1 (Homo sapiens, UniProt Q13153)
PAK1, sequence (Q13153 whole entry): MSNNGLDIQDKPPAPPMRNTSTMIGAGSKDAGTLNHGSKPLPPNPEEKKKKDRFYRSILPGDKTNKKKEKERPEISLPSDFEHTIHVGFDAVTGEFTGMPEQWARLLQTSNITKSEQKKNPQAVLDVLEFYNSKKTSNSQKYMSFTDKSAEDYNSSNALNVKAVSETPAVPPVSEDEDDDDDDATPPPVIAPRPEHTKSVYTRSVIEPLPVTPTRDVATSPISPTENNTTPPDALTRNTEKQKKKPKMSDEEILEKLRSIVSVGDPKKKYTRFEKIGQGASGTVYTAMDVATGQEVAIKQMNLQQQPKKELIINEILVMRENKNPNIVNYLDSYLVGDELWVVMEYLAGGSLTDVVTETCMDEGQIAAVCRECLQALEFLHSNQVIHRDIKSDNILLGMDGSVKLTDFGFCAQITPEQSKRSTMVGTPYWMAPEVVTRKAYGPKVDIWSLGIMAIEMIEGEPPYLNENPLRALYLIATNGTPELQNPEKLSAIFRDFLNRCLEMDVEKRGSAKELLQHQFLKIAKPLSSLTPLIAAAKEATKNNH
Description: as §1

CDKL5 = CDKL5 (Homo sapiens, UniProt O76039)
Description: as §1

PAK2 = PAK2 (Homo sapiens, UniProt Q13177)
Description: as §1

KIT(D816H) = KIT(D816H) (Homo sapiens, UniProt P10721, D816H)
Description: as §1

PIK3CA = PIK3CA (Homo sapiens, UniProt P42336)
Description: as §1

MST3 = biological target: T2, MST3 (Homo sapiens, UniProt Q9Y6E0)
T2 construct: gene STK24
T2 sequence (Q9Y6E0 whole entry): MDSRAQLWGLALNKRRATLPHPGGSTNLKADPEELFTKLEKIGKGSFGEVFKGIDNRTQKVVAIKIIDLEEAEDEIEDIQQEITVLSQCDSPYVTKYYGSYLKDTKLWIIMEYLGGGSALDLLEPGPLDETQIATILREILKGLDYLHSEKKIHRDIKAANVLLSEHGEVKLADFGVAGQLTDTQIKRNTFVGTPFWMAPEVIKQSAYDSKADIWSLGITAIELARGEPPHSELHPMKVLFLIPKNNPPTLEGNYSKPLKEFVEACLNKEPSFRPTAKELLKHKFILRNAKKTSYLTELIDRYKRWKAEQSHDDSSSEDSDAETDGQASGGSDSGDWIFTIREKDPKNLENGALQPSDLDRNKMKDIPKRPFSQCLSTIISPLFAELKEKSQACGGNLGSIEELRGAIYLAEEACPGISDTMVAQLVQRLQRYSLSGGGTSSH
Description: as §1

LKB1 = biological target: T3, LKB1 (Homo sapiens, UniProt Q15831)
T3 construct: gene STK11
Description: as §1

KIT(V559D) = KIT(V559D) (Homo sapiens, UniProt P10721, V559D)
Description: as §1

SYK = SYK (Homo sapiens, UniProt P43405)
Description: as §1

[1] = biological target: T4, ABL1(F317L)-phosphorylated (Homo sapiens, UniProt P00519, F317L)
T4 construct: phosphorylated
Description: as §1

ARK5 = biological target: T5, ARK5 (Homo sapiens, UniProt O60285)
T5 construct: gene NUAK1
T5 sequence (O60285 whole entry): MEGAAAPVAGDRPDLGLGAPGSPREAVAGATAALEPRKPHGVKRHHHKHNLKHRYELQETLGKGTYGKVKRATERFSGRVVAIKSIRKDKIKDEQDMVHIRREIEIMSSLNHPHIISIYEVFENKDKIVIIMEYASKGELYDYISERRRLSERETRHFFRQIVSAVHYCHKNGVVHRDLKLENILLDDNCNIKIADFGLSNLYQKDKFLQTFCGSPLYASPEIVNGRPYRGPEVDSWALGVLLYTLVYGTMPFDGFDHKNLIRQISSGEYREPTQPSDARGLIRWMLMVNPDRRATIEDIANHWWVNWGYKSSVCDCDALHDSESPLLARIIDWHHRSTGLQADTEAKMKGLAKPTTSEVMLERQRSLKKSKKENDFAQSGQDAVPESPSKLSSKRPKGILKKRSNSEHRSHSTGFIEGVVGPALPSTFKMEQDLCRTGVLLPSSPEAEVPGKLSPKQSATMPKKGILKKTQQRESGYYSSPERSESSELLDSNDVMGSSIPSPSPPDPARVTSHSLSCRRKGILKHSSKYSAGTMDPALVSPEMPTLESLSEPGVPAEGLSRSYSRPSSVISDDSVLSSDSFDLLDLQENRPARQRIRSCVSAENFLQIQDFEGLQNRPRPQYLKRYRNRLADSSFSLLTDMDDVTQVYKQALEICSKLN
Description: as §1

DAPK2 = DAPK2 (Homo sapiens, UniProt Q9UIK4)
Description: as §1

ERK3 = biological target: T6, ERK3 (Homo sapiens, UniProt Q16659)
T6 construct: gene MAPK6
Description: as §1

PIK3CG = PIK3CG (Homo sapiens, UniProt P48736)
PIK3CG, sequence (P48736 whole entry): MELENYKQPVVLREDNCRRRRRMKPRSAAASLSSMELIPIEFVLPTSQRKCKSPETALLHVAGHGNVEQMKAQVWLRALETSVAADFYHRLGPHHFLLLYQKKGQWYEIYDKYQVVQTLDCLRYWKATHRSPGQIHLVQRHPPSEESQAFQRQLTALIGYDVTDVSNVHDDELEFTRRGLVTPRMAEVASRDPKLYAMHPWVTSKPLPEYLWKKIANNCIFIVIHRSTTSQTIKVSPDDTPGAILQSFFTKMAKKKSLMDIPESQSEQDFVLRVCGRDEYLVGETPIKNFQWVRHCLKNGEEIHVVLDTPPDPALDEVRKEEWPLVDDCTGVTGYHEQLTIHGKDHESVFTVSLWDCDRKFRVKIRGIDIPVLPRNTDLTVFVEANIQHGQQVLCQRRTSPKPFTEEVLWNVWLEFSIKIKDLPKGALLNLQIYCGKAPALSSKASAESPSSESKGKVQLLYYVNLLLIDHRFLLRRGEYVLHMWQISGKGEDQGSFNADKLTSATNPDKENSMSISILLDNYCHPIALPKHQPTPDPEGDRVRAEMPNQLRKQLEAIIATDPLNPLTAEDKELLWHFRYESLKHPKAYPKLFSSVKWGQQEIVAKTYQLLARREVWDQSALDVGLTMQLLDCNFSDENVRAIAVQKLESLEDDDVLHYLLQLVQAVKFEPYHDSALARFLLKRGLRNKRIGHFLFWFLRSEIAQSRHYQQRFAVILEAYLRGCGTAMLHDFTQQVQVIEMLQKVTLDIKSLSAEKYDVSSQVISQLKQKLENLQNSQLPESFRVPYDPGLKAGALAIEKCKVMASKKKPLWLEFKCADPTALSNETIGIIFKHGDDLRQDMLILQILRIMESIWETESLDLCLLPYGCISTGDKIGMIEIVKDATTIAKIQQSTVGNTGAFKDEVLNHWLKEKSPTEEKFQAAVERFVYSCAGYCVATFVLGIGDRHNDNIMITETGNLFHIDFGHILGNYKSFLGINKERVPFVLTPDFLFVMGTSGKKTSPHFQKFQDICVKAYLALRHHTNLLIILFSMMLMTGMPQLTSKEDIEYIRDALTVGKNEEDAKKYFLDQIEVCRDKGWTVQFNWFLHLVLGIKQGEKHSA
Description: as §1

WNK4 = WNK4 (Homo sapiens, UniProt Q96J92)
Description: as §1

ASK2 = biological target: T7, ASK2 (Homo sapiens, UniProt O95382)
T7 construct: gene MAP3K6
T7 sequence (O95382 whole entry): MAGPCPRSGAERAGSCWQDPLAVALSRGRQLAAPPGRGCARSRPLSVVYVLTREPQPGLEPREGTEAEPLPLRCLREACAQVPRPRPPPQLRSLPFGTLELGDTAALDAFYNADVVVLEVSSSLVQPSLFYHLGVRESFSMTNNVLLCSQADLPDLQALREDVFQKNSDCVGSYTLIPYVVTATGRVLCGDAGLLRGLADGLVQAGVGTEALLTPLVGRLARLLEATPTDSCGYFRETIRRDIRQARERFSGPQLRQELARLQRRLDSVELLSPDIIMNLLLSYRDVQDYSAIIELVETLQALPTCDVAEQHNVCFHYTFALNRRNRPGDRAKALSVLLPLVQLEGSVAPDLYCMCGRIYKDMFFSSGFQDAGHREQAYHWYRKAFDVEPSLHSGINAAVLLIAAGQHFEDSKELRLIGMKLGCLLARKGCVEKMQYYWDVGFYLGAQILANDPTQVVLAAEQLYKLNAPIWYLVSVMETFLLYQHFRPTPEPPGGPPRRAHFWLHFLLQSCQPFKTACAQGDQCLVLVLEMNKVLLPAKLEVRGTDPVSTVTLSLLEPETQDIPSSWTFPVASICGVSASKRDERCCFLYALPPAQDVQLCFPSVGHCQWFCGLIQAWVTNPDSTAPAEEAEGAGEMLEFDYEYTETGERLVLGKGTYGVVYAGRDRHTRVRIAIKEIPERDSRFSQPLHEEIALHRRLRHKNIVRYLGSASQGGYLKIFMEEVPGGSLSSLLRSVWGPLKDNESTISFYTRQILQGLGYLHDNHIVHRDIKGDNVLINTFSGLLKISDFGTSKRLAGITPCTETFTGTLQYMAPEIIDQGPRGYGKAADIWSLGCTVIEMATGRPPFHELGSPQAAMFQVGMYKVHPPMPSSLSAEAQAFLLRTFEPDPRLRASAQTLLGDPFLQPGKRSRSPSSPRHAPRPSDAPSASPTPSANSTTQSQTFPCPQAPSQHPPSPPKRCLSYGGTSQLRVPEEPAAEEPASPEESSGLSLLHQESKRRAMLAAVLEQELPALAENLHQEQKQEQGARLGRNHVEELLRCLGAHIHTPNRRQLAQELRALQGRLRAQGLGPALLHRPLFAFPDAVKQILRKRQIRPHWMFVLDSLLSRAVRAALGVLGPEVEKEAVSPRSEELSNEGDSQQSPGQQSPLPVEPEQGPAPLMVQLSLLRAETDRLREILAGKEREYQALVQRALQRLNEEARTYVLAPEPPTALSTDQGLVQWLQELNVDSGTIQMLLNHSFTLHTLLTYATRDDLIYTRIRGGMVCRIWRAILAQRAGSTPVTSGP
Description: as §1

Structure (SMILES): Cn1c(=O)[nH]c2ccc(-c3cccc(C(=O)NC4CCn5ccnc5C4)c3)cc21 (stereo not shown) [Z36-MP5]
- remaining binding at 1 µM (FLT3(ITD)): 92%
- remaining binding at 1 µM (EGFR(T790M)): 44%
- remaining binding at 1 µM (CSNK1A1): 74%
- remaining binding at 1 µM (EGFR(L861Q)): 69%
- remaining binding at 1 µM (FGFR3): 84%
- remaining binding at 1 µM (NEK10): 50%
- remaining binding at 1 µM (JNK2): 54%
- remaining binding at 1 µM (SRC): 97%
- remaining binding at 1 µM (CAMKK2): 51%
- remaining binding at 1 µM (PAK1): 87%
- remaining binding at 1 µM (CDKL5): 39%
- remaining binding at 1 µM (PAK2): 63%
- remaining binding at 1 µM (KIT(D816H)): 78%
- remaining binding at 1 µM (PIK3CA): 97%
- remaining binding at 1 µM (MST3): 96%
- remaining binding at 1 µM (LKB1): 97%
- remaining binding at 1 µM (KIT(V559D)): 90%
- remaining binding at 1 µM (SYK): 57%
- remaining binding at 1 µM [1]: 83%
- remaining binding at 1 µM (ARK5): 98%
- remaining binding at 1 µM (DAPK2): 93%
- remaining binding at 1 µM (ERK3): 90%
- remaining binding at 1 µM (PIK3CG): 83%
- remaining binding at 1 µM (WNK4): 81%
- remaining binding at 1 µM (ASK2): 93%
